Reference: PMC7812606 (ACS Medicinal Chemistry Letters, 2020)
Entries after “also recorded” stand apart in the source; their conditions may differ.

How the values were obtained:
JNK3 = JNK3 (Homo sapiens, UniProt P53779); assay type: biochemical; settings: JNK3 or JNK1
JNK2 = JNK2 (Homo sapiens, UniProt P45984); assay type: biochemical; settings: isoform selectivity, fold
In vivo brain exposure = settings: mice
[1] = tested on: APP^T668 phosphorylation in primary neurons; experiment: Cell-based inhibition of APP T668 phosphorylation; settings: concentration as low as 10 nM
[2] = target: panel of ∼374 wild-type kinases; experiment: Kinase panel profiling, overall; assay type: biochemical; settings: 17 and 25 at 5 μM, 27 at 10 μM

Chain of JNK3 (P53779 whole entry, canonical isoform): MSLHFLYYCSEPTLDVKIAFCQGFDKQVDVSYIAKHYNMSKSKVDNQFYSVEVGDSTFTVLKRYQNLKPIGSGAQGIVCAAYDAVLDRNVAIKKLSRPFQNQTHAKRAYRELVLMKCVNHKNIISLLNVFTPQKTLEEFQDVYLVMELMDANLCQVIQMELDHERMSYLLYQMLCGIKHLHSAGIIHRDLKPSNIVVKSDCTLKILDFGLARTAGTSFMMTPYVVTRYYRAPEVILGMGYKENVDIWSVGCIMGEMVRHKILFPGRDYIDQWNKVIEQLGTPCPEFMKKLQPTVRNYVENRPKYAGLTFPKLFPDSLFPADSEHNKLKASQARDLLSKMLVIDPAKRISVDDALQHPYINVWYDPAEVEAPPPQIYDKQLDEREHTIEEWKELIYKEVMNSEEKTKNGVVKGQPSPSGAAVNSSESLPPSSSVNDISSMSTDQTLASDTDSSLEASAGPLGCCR
Chain of JNK2 (P45984 whole entry, canonical isoform): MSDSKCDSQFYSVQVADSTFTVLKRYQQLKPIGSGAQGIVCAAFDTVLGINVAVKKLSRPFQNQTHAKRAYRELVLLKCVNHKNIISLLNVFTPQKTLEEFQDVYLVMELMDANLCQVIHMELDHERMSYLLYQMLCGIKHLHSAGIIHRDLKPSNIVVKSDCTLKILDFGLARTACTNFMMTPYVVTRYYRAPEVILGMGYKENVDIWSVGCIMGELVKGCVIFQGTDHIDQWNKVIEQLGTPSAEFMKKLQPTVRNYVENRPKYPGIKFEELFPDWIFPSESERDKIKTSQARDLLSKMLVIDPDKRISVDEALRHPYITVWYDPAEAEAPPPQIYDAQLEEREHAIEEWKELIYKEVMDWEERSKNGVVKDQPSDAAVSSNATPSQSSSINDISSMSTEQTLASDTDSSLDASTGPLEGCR

kinases with significant inhibition (>80% inhibition) in panel [2] | Structure (SMILES) | inhibition of phosphorylation of residue T668 of APP [1] | further results
 | O=C(Nc1cnn(-c2nc(C(=O)NC3CNC3)cs2)c1)Nc1ccccc1Cl [Compound 3] |  | inhibition of JNK3 and JNK1 in words (JNK3): no inhibitions
 | O=C(Nc1cnn(-c2csc(C(=O)N[C@@H]3CCOC3)c2)c1)Nc1ccccc1Cl [Compound 16] |  | R: ratio of IC50 values for JNK2 over JNK3 (JNK2): > 250
against only JNK3 | O=C(Nc1cnn(-c2csc(C(=O)NC3COC3)c2)c1)Nc1c(F)cccc1Cl [Compound 25] |  | 
 | O=C(Nc1cnn(-c2csc(C(=O)NC3COC3)c2)c1)Nc1ccc(F)cc1Cl [Compound 26] | significantly inhibited | 
against only JNK3 | Cc1sc(C(=O)NC2COC2)cc1-n1cc(NC(=O)Nc2c(F)cccc2Cl)cn1 [Compound 27] |  | 
 | Cc1sc(C(=O)N[C@@H]2CCOC2)cc1-n1cc(NC(=O)Nc2c(F)cccc2Cl)cn1 [Compound 28] | significantly inhibited | 

Structure (SMILES) | kinases with significant inhibition (>80% inhibition) in panel [2] | inhibition of phosphorylation of residue T668 of APP [1] | further results
O=C(Nc1cnn(-c2csc(C(=O)NC3COC3)c2)c1)Nc1ccccc1Cl [Compound 17] | significant inhibition to only JNK3; also recorded: against only JNK3 | significantly inhibited | brain penetration (In vivo brain exposure; po dosing): brain penetrant; oral bioavailability (In vivo brain exposure; po dosing): has oral bioavailability; brain concentration (In vivo brain exposure; po, 10 mg/kg, 1 h after dosing): 1080 nM; plasma concentration (In vivo brain exposure; po, 10 mg/kg, 1 h after dosing): 960 nM
